Our source for the EC50 values is patent US9034882B2, “Inhibitors of human immunodeficiency virus replication” (priority 2012, dated 2015).

pEC50: −log10 of the molar value. Like-named read-outs stand apart in the source and are kept apart here.

The assay deals with recombinant NL-Rluc virus. The experiment in a line: Inhibition of HIV replication (NL-RLuc luciferase reporter virus in MT-2 cells). The assay is classed as cell-based. The following applies: Human immunodeficiency virus 1, MT2, 120 h; for pEC50: read-out: Activity; for EC50: read-out: EC50 μM. In general terms: A reporter such as luciferase makes a cellular process visible.

One may read the EC50 as the concentration that produces a half-maximal response. For the molecule `COc1ccccc1-c1cccc(-c2cc3nc(C)c([C@H](OC(C)(C)C)C(=O)O)c(N4CCC(C)(C)CC4)n3n2)c1` [Example 59, (S)-2-(tert-Butoxy)-2-(7-(4,4-dimethylpiperidin-1-yl)-2-(2′-methoxy-[1,1′-biphenyl]-3-yl)-5-methylpyrazolo[1,5-a]pyrimidin-6-yl)acetic acid], the pEC50 was > 7.00 and the concentration for a half-maximal effect (EC50) was 0.015 µM.
The matching figures for `Cc1nc2cc(-c3ccccc3)nn2c(N2CCC(C)CC2)c1C(OC(C)(C)C)C(=O)O` (stereo not drawn) [Example 8, 2-(tert-butoxy)-2-(5-methyl-7-(4-methylpiperidin-1-yl)-2-phenylpyrazolo[1,5a]pyrimidin-6-yl)acetic acid]: 6.00 to 7.00 and 0.72 µM.
For the molecule `Cc1nc2nc(-c3ccccc3)nn2c(N2CCC(C)CC2)c1C(OC(C)(C)C)C(=O)O` (stereo not drawn) [Example 38, 2-tert-Butoxy-2-(5-methyl-7-(4-methylpiperidin-1-yl)-2-phenyl-[1,2,4]triazolo[1,5-a]pyrimidin-6-yl)acetic acid], the pEC50 is < 6.00.
The same measure, in the same setting: the same measure for `Cc1nc2cc(-c3ccccc3)nn2c(N2C(C)COCC2C)c1C(OC(C)(C)C)C(=O)O` (stereo not drawn) [Example 9]: < 6.00.
On to `Cc1nc2cc(-c3ccccc3)nn2c(N2Cc3ccccc3C2)c1C(OC(C)(C)C)C(=O)O` (stereo not drawn) [Example 5, 2-(tert-butoxy)-2-(7-(isoindolin-2-yl)-5-methyl-2-phenylpyrazolo[1,5a]pyrimidin-6-yl)acetic acid], for which the pEC50 was < 6.00.
The same measure, in the same setting: the same measure for `Cc1nc2cc(-c3ccccc3)nn2c(N2CCCC2C(C)C)c1C(OC(C)(C)C)C(=O)O` (stereo not drawn) [Example 25]: < 6.00; for `Cc1nc2cc(-c3cccc(-c4ccccc4)c3)nn2c(N2CCOCC2)c1[C@H](OC(C)(C)C)C(=O)O` [Example 44, (S)-2-(2-([1,1′-Biphenyl]-3-yl)-5-methyl-7-morpholinopyrazolo[1,5-a]pyrimidin-6-yl)-2-(tert-butoxy)acetic acid]: 6.00 to 7.00.
